Legend:
BRD2(BD2) = target: T1, BRD2(BD2) (Homo sapiens, UniProt P25440); assay: Binding inhibition ability test for BRD2 protein (AlphaScreen, GST BRD2 / biotinylated acetyl histone H4 peptide); conditions: 100 nM GST BRD2, 100 nM biotinylated acetyl histone H4 (Lys5, 8, 12, 16) peptide, Alpha Screen
T1 construct: a mixture of 100 nM GST BRD2 (BD1, BD2, BD1+BD2) and 100 nM biotinylated acetyl histone H4
Procedure: To confirm a binding inhibitory effect of a quinizarin derivative of the present disclosure on a BRD2 protein among BET proteins, the following experiment was performed.
First, a compound was diluted in 1:5 subdilution in an assay buffer from a 10 mM stock in dimethyl sulfoxide (DMSO) in a white Optiplate.
Then, a mixture of 100 nM GST BRD2 (BD1, BD2, BD1+BD2) and 100 nM biotinylated acetyl histone H4 (Lys5, 8, 12, 16) peptides was added to the diluent, and then each sample was shaking-cultured in the dark at 300 rpm for 30 minutes at room temperature.
Thereafter, signals were measured with a PerkinElmer Envision HTS Multilabel Reader using a PerkinElmer Alpha Screen protocol.

HepG2 cells = assay: Lipogenesis inhibition in palmitic acid-induced fatty liver HepG2 cells (Oil red O staining); format: cell-based, human; conditions: pretreated 1 μM to 10 μM, 100 μM palmitic acid 24 hours
Procedure: HepG2 cell lines, human liver epithelial cells, were incubated, pretreated with quinizarin and a substance of Example 2 (BBC0504) at concentrations of 1 μM to 10 μM, and treated with 100 μM palmitic acid (PA) for 24 hours to induce fatty liver at a cellular level. After 24 hours, the cells in each sample were immobilized for 1 hour with a phosphate-buffered salt solution containing 7% formaldehyde, washed with PBS, and stained with a 99% isopropanol solution containing 1% Oil red O for 10 minutes. The differentiation degree of adipocytes was measured by dissolving the stained Oil red O in isopropanol and measuring the absorbance at 510 nm.
Referring to FIG. 11, HepG2 cells, which are human liver epithelial cells, were treated with palmitic acid to induce fatty liver, and the ability to inhibit lipogenesis was confirmed at each concentration in Example 2.

SREBP-1 = assay: Expression of liposynthesis factor SREBP-1 in palmitic acid-treated HepG2 cells (RT-PCR); format: cell-based, human; conditions: pretreated 1 μM to 10 μM, 100 μM palmitic acid 24 hours
Procedure: (§1) HepG2 cell lines, human liver epithelial cells, were incubated, pretreated with quinizarin and a substance of Example 2 (BBC0504) at concentrations of 1 μM to 10 μM, and treated with 100 μM palmitic acid (PA) for 24 hours to induce fatty liver at a cellular level. After 24 hours, the expression of lipogenesis-related genes SREBP-1 and FAS in cells in each sample was confirmed using RT-PCR. Each sample was added with a trizol reagent to extract total RNA, and the concentration was confirmed using a spectrophotometer. To synthesize cDNA for each gene, RT-PCR reaction was performed using primers targeting the SREBP-1 and FAS genes. β-actin was used as a control group, and after the reaction was completed, the detected cDNA product was confirmed by electrophoresis on a 1.0% agarose gel.
FIG. 13 illustrates a result of confirming SREBP-1 expression after treating fatty liver-induced cells for each concentration with a quinizarin derivative according to an embodiment of the present disclosure.

FAS = assay: Expression of liposynthesis factor FAS in palmitic acid-treated HepG2 cells (RT-PCR); format: cell-based, human; conditions: pretreated 1 μM to 10 μM, 100 μM palmitic acid 24 hours
Procedure: as §1
FIG. 14 illustrates a result of confirming FAS expression after treating fatty liver-induced cells with a quinizarin derivative at each concentration according to an embodiment of the present disclosure.

T1 sequence (P25440 344-453 limits assumed, species assumed): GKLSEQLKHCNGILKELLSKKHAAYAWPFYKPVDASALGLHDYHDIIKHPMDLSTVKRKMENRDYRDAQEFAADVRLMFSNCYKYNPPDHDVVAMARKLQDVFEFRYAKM

SMILES | IC50 (BRD2(BD2)) | lipogenesis amount (Oil red O absorbance at 510 nm) (HepG2 cells) | SREBP-1 gene expression (SREBP-1) | FAS gene expression (FAS)
O=C1c2ccccc2C(=O)c2c(O)c(-c3ccc(O)c(O)c3)cc(O)c21 [Example 1] | 1.74 µM | – | – | –
O=C1c2ccc(-c3ccc(O)c(O)c3)cc2C(=O)c2c(O)ccc(O)c21 [Example 2] | 4.44 µM | reduced in a concentration-dependent manner | reduced depending on a concentration | reduced depending on a concentration
O=C1c2ccccc2C(=O)c2c(O)cc(-c3ccc(O)c(O)c3)cc21 [Example 3] | 1.75 µM | – | – | –
O=C1c2ccccc2C(=O)c2c(OC3COC3)ccc(O)c21 [Example 4] | 3.12 µM | – | – | –
O=C1c2ccccc2C(=O)c2c3c(cc(O)c21)OCCO3 [Example 5] | 2.73 µM | – | – | –
